Test results as given in patent publication US10072011B2, “Substituted bridged urea analogs as sirtuin modulators” (GlaxoSmithKline Intellectual Property (No.2) Limited, priority 2014, dated 2018).
Like-named read-outs stand apart in the source and are kept apart here.

Target: T1, SIRT1 (Homo sapiens, UniProt Q96EB6)
T1 sequence (Q96EB6 1-747): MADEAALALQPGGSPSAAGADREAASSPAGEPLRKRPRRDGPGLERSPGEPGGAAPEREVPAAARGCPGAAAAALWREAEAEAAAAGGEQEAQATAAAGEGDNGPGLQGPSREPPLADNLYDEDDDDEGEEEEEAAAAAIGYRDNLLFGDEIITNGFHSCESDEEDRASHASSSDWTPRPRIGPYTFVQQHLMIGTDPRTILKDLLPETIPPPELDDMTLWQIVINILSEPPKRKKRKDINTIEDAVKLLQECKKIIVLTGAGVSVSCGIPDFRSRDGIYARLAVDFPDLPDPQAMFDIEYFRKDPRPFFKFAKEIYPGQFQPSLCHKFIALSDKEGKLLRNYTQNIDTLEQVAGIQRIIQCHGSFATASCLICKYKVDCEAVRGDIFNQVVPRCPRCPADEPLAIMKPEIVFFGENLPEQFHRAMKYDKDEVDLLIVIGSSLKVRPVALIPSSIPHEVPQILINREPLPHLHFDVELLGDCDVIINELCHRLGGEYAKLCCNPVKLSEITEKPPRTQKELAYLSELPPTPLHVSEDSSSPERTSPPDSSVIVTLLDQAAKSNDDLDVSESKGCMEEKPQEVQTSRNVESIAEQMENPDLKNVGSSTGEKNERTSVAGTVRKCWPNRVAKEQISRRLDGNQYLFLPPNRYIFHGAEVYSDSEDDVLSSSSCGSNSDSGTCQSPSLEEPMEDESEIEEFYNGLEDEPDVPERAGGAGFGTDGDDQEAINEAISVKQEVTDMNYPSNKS
Assay: Trp mass spectrometry assay of SIRT1 activation (Ac-R-H-K-K(Ac)-W-NH2 peptide)
Format: biochemical
Conditions: for Emax: 25 min, read-out: TRP MAX RESP (percent maximum fold activation)
Summary of the method: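 N-terminal His-tagged human SIRT1, expressed in BL21(DE3) and purified, was incubated 25 min with an acetylated Trp peptide and NAD plus test compound at varying concentrations, then quenched with formic acid. OAADPR or deacetylated peptide was quantified by mass spectrometry versus compound-free control; EC1.5 is the concentration giving 50% activity increase, with percent maximum activation.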

[1] = Trp peptide 0.5 μM, 120 μM βNAD+, 10 nM SIRT1, 25 min at 25° C., relative to control (100%)
[2] = Trp peptide 0.5 μM, 120 μM βNAD+, 10 nM SIRT1, 25 min at 25° C.

| SMILES | Emax [1] [%] | TRP Activity (EC1.5, concentration of test compound that results in 150% activation of SIRT1) [2] | TRP MAX RESP (percent maximum fold activation) [1] | Emax [%] |
| --- | --- | --- | --- | --- |
| CC#CCNC(=O)c1ccc2c(n1)N(C(=O)Nc1ccccn1)[C@H]1CCN2C1 [Example 109, (4S)—N7-(but-2-yn-1-yl)-N5-(pyridin-2-yl)-3,4-dihydro-1,4-methanopyrido[2,3-b][1,4]diazepine-5,7(2H)-dicarboxamide] | > 150 | A (EC1.5<1 μM) | – | – |
| O=C(NCC1(O)CC1)c1ccc2c(n1)N(C(=O)Nc1ccccn1)[C@H]1CCN2C1 [Example 36, (4S)—N7-((1-hydroxycyclopropyl)methyl)-N5-(pyridin-2-yl)-3,4-dihydro-1,4-methanopyrido[2,3-b][1,4]diazepine-5,7(2H)-dicarboxamide] | > 150 | B (EC1.5 1-25 μM) | – | – |
| Cc1ccc2c(NC(=O)N3c4nc(C(=O)NC5CC5(F)F)ccc4N4CC[C@H]3C4)n[nH]c2n1 (single isomer, unassigned) [Example 221] | – | B (EC1.5 1-25 μM) | A (Fold activation≥150%) | – |
| COc1cc(C(=O)NCC(F)(F)F)nc2c1N1CC[C@@H](C1)N2C(=O)Nc1ccccn1 [Example 286, (4S)-9-methoxy-N5-(pyridin-2-yl)-N7-(2,2,2-trifluoroethyl)-3,4-dihydro-1,4-methanopyrido[2,3-b][1,4]diazepine-5,7(2H)-dicarboxamide] | – | A (EC1.5<1 μM) | – | > 150 |
| O=C(N[C@H](C1CC1)C(F)(F)F)c1ccc2c(n1)N(C(=O)Nc1cc(OC[C@H](O)CO)ccn1)[C@H]1CCN2C1 [Example 88, (4S)—N7-((R)-1-cyclopropyl-2,2,2-trifluoroethyl)-N5-(4-((R)-2,3-dihydroxypropoxy)pyridin-2-yl)-3,4-dihydro-1,4-methanopyrido[2,3-b][1,4]diazepine-5,7(2H)-dicarboxamide] | > 150 | A (EC1.5<1 μM) | – | – |
| COc1cc(NC(=O)N2c3nc(C(=O)NC4CC4(F)F)ccc3N3CC[C@H]2C3)ncn1 (single isomer, unassigned) [Example 298] | < 150 | B (EC1.5 1-25 μM) | – | – |
| CC[C@@H](CO)NC(=O)c1ccc2c(n1)N(C(=O)Nc1ccccn1)[C@H]1CCN2C1 [Example 30, (4S)—N7-((S)-1-hydroxybutan-2-yl)-N5-(pyridin-2-yl)-3,4-dihydro-1,4-methanopyrido[2,3-b][1,4]diazepine-5,7(2H)-dicarboxamide] | > 150 | A (EC1.5<1 μM) | – | – |
| O=C(NCC(F)(F)F)c1ccc2c(n1)N(C(=O)Nc1ccc3[nH]c(=O)[nH]c3c1)[C@H]1CCN2C1 [Example 232, (4S)—N5-(2-oxo-2,3-dihydro-1H-benzo[d]imidazol-5-yl)-N7-(2,2,2-trifluoroethyl)-3,4-dihydro-1,4-methanopyrido[2,3-b][1,4]diazepine-5,7(2H)-dicarboxamide] | < 150 | C (EC1.5>25 μM) | – | – |
| O=C(NC(CO)C1CC1)c1ccc2c(n1)N(C(=O)Nc1ccccn1)[C@H]1CCN2C1 (single isomer, unassigned) [Example 58] | > 150 | A (EC1.5<1 μM) | – | – |
| O=C(NCc1ccc(F)cc1)c1ccc2c(n1)N(C(=O)Nc1cc(OC[C@H](O)CO)ccn1)[C@H]1CCN2C1 [Example 240, (4S)—N5-(4-((R)-2,3-dihydroxypropoxy)pyridin-2-yl)-N7-(4-fluorobenzyl)-3,4-dihydro-1,4-methanopyrido[2,3-b][1,4]diazepine-5,7(2H)-dicarboxamide] | > 150 | A (EC1.5<1 μM) | – | – |
| O=C(NCCCO)c1ccc2c(n1)N(C(=O)Nc1ccccn1)[C@H]1CCN2C1 [Example 218, (4S)—N7-(3-hydroxypropyl)-N5-(pyridin-2-yl)-3,4-dihydro-1,4-methanopyrido[2,3-b][1,4]diazepine-5,7(2H)-dicarboxamide] | > 150 | B (EC1.5 1-25 μM) | – | – |
| O=C(NC1CCOC1)c1ccc2c(n1)N(C(=O)Nc1ccccn1)[C@H]1CCN2C1 (stereo partly drawn) [Example 6, (4S)—N-5-(pyridin-2-yl)-N-7-(tetrahydrofuran-3-yl)-3,4-dihydro-1,4-methano pyrido [2,3-b] [1, 4] diazepine-5, 7(2H)-dicarboxamide] | > 150 | B (EC1.5 1-25 μM) | – | – |
| CC(C)(C#N)NC(=O)c1ccc2c(n1)N(C(=O)Nc1ccccn1)[C@H]1CCN2C1 [Example 104, (4S)—N7-(2-cyanopropan-2-yl)-N5-(pyridin-2-yl)-3,4-dihydro-1,4-methanopyrido[2,3-b][1,4]diazepine-5,7(2H)-dicarboxamide] | > 150 | B (EC1.5 1-25 μM) | – | – |
| Cc1ccc2c(NC(=O)N3c4nc(C(=O)NC5CC5(F)F)ccc4N4CC[C@H]3C4)n[nH]c2n1 (single isomer, unassigned) [Example 65] | > 150 | A (EC1.5<1 μM) | – | – |

Further lines, with some results ahead:

| Emax [1] [%] | TRP Activity (EC1.5, concentration of test compound that results in 150% activation of SIRT1) [2] | TRP MAX RESP (percent maximum fold activation) [1] | SMILES | Emax [%] |
| --- | --- | --- | --- | --- |
| – | B (EC1.5 1-25 μM) | B (Fold Activation<150%) | C[C@@H](NC(=O)c1ccc2c(n1)N(C(=O)Nc1ncc(F)cc1F)[C@H]1CCN2C1)C(F)(F)F [Example 310, (4S)—N5-(3,5-difluoropyridin-2-yl)-N7-((R)-1,1,1-trifluoropropan-2-yl)-3,4-dihydro-1,4-methanopyrido[2,3-b][1,4]diazepine-5,7(2H)-dicarboxamide] | – |
| > 150 | A (EC1.5<1 μM) | – | C[C@@H](NC(=O)c1ccc2c(n1)N(C(=O)Nc1cccn(C)c1=O)[C@H]1CCN2C1)C(F)(F)F [Example 98, (4S)—N5-(1-methyl-2-oxo-1,2-dihydropyridin-3-yl)-N7-((R)-1,1,1-trifluoropropan-2-yl)-3,4-dihydro-1,4-methanopyrido[2,3-b][1,4]diazepine-5,7(2H)-dicarboxamide] | – |
| > 150 | A (EC1.5<1 μM) | – | O=C(NC(CO)C(F)(F)F)c1ccc2c(n1)N(C(=O)Nc1ccccn1)[C@H]1CCN2C1 (stereo partly drawn) [Example 8, (4S)—N-5-(pyridin-2-yl)-N-7-(1,1,1-trifluoro-3-hydroxypropan-2-yl)-3,4-dihydro-1,4-methanopyrido[2,3-b][1,4]diazepine-5,7(2H)-dicarboxamide] | – |
| < 150 | A (EC1.5<1 μM) | – | C[C@@H](NC(=O)c1ccc2c(n1)N(C(=O)Nc1cc(-c3cc[nH]n3)ccn1)[C@H]1CCN2C1)C(F)(F)F [Example 323, (4S)—N5-(4-(1H-pyrazol-3-yl)pyridin-2-yl)-N7-((R)-1,1,1-trifluoropropan-2-yl)-3,4-dihydro-1,4-methanopyrido[2,3-b][1,4]diazepine-5,7(2H)-dicarboxamide] | – |
| < 150 | A (EC1.5<1 μM) | – | Cc1ncc(-c2cc(NC(=O)N3c4nc(C(=O)N[C@H](C)C(F)(F)F)ccc4N4CC[C@H]3C4)c(=O)n(C)c2)o1 [Example 319, (4S)—N5-(1-methyl-5-(2-methyloxazol-5-yl)-2-oxo-1,2-dihydropyridin-3-yl)-N7-((R)-1,1,1-trifluoropropan-2-yl)-3,4-dihydro-1,4-methanopyrido[2,3-b][1,4]diazepine-5,7(2H)-dicarboxamide] | – |
| > 150 | A (EC1.5<1 μM) | – | CC[C@H](NC(=O)c1ccc2c(n1)N(C(=O)Nc1ccccn1)[C@H]1CCN2C1)C(F)(F)F [Example 31, (4S)—N5-(pyridin-2-yl)-N7-((S)-1,1,1-trifluorobutan-2-yl)-3,4-dihydro-1,4-methanopyrido[2,3-b][1,4]diazepine-5,7(2H)-dicarboxamide] | – |
| > 150 | A (EC1.5<1 μM) | – | C[C@@H](NC(=O)c1ccc2c(n1)N(C(=O)Nc1ccnn(C)c1=O)[C@H]1CCN2C1)C(F)(F)F [Example 122, (4S)—N5-(2-methyl-3-oxo-2,3-dihydropyridazin-4-yl)-N7-((R)-1,1,1-trifluoropropan-2-yl)-3,4-dihydro-1,4-methanopyrido[2,3-b][1,4]diazepine-5,7(2H)-dicarboxamide] | – |
